Source: PMC4657098, “A Review of the Updated Pharmacophore for the Alpha 5 GABA(A) Benzodiazepine Receptor Model” (International Journal of Medicinal Chemistry, 2015)
Several values for one entry are separate records, joined by “and”; a condition that tells them apart may be missing. Equal values may be shown once. Read-outs that look alike come from different tables or passages of the source.

Experiments:
[1] = target: T1, α4β3γ2 GABAA/BzR (Homo sapiens, UniProt P18507+P48169); experiment: biochemical; type: binding
T1 construct: expressed in transfected cells; host or cells: LTK cells (given for XLi-093 only)

[2] = target: T1, α4β3γ2 GABAA/BzR; conditions: Figure 33; αxβ3γ2; read-out: Affinity Ki α4; cited from earlier work
[3] = target: T2, α1β3γ2 GABAA/BzR (Homo sapiens, UniProt P14867+P18507); experiment: Competition binding to HEK cell membranes, α1β3γ2; parameters: expressed in transfected cells; conditions: Ki α1
[4] = target: T3, α2β3γ2 GABAA/BzR (Homo sapiens, UniProt P18507+P47869); experiment: Competition binding to HEK cell membranes, α2β3γ2; parameters: expressed in transfected cells; conditions: Ki α2
[5] = target: T4, α3β3γ2 GABAA/BzR (Homo sapiens, UniProt P18507+P34903); experiment: Competition binding to HEK cell membranes, α3β3γ2; parameters: expressed in transfected cells; conditions: Ki α3
[6] = target: T5, α5β3γ2 GABAA/BzR (Homo sapiens, UniProt P18507+P31644); experiment: Competition binding to HEK cell membranes, α5β3γ2; parameters: expressed in transfected cells; conditions: Ki α5
[7] = target: T6, α6β3γ2 GABAA/BzR (Homo sapiens, UniProt P18507+Q16445); experiment: Competition binding to HEK cell membranes, α6β3γ2; parameters: expressed in transfected cells; conditions: Ki α6
[8] = target: T2, α1β3γ2 GABAA/BzR; parameters: expressed in transfected cells; host or cells: LTK cells (given for XLi-093 only); conditions: Figure 33; αxβ3γ2; read-out: Affinity Ki α1; cited from earlier work
[9] = target: T3, α2β3γ2 GABAA/BzR; parameters: expressed in transfected cells; host or cells: LTK cells (given for XLi-093 only); conditions: Figure 33; αxβ3γ2; read-out: Affinity Ki α2; cited from earlier work
[10] = target: T4, α3β3γ2 GABAA/BzR; parameters: expressed in transfected cells; host or cells: LTK cells (given for XLi-093 only); conditions: Figure 33; αxβ3γ2; read-out: Affinity Ki α3; cited from earlier work
[11] = target: T5, α5β3γ2 GABAA/BzR; parameters: expressed in transfected cells; host or cells: LTK cells (given for XLi-093 only); conditions: Figure 33; αxβ3γ2; read-out: Affinity Ki α5; cited from earlier work
[12] = target: T6, α6β3γ2 GABAA/BzR; parameters: expressed in transfected cells; host or cells: LTK cells (given for XLi-093 only); conditions: Figure 33; αxβ3γ2; read-out: Affinity Ki α6; cited from earlier work
[13] = test system: dopamine neurons in the VTA; conditions: rat, in vivo; cited from earlier work
[14] = test system: human airway smooth muscle cells; conditions: 200 μM; cited from earlier work
[15] = target: α2β3γ2 BzR/GABA(A); conditions: Figure 1; LTK cells; read-out: Binding affinity α2; cited from earlier work
[16] = target: α3β3γ2 BzR/GABA(A); conditions: Figure 1; LTK cells; read-out: Binding affinity α3; cited from earlier work
[17] = target: α4β3γ2 BzR/GABA(A); conditions: Figure 1; LTK cells; read-out: Binding affinity α4; cited from earlier work
[18] = target: α5β3γ2 BzR/GABA(A); conditions: Figure 1; LTK cells; read-out: Binding affinity α5; cited from earlier work
[19] = target: α6β3γ2 BzR/GABA(A); conditions: Figure 1; LTK cells; read-out: Binding affinity α6; cited from earlier work
[20] = target: T7, α1β2γ2 GABAA receptor (Homo sapiens, UniProt P14867+P18507); experiment: Radioligand binding (McKernan and Atack), α1β2γ2; conditions: Table 3; αxβ2γ2; means of two determinations; read-out: Binding affinity α1
T7 construct: expressed in transfected cells; host or cells: HEK cells
Protocol: (§1) Transfected HEK cells (beta2 gamma2 and desired alpha subtype) were harvested into phosphate-buffered saline, centrifuged at 3,000 g, and stored at −70°C until required. On the day of the assay, pellets were thawed and resuspended in sufficient volume of 50 mM Tris/acetate (pH 7.4 at 4°C) to give a total binding of approximately 1500–2000 dpm. […] Total assay volume was 0.5 mL and assays were carried out in 96-well plates and incubation time started by the addition of 0.1 mL of resuspended cell membranes. Following incubation for 1 hour at 4°C, assays were terminated by filtration through GF/B filters, washed with 10 mL ice cold buffer, dried, and then counted using a liquid scintillation counter. […] We have previously reported the synthesis of the following.

[21] = target: T8, α2β2γ2 GABAA receptor (Homo sapiens, UniProt P18507+P47869); experiment: Radioligand binding (McKernan and Atack), α2β2γ2; conditions: Table 3; αxβ2γ2; means of two determinations; read-out: Binding affinity α2
T8 construct: expressed in transfected cells; host or cells: HEK cells
Protocol: as §1

[22] = target: T9, α3β2γ2 GABAA receptor (Homo sapiens, UniProt P18507+P34903); experiment: Radioligand binding (McKernan and Atack), α3β2γ2; conditions: Table 3; αxβ2γ2; means of two determinations; read-out: Binding affinity α3
T9 construct: expressed in transfected cells; host or cells: HEK cells
Protocol: as §1

[23] = target: T10, α4β2γ2 GABAA receptor (Homo sapiens, UniProt P18507+P48169); experiment: Radioligand binding (McKernan and Atack), α4β2γ2; conditions: Table 3; αxβ2γ2; means of two determinations; read-out: Binding affinity α4
T10 construct: expressed in transfected cells; host or cells: HEK cells
Protocol: as §1

[24] = target: T11, α5β2γ2 GABAA receptor (Homo sapiens, UniProt P18507+P31644); experiment: Radioligand binding (McKernan and Atack), α5β2γ2; conditions: Table 3; αxβ2γ2; means of two determinations; read-out: Binding affinity α5
T11 construct: expressed in transfected cells; host or cells: HEK cells
Protocol: as §1

[25] = target: T12, α6β2γ2 GABAA receptor (Homo sapiens, UniProt P18507+Q16445); experiment: Radioligand binding (McKernan and Atack), α6β2γ2; conditions: Table 3; αxβ2γ2; means of two determinations; read-out: Binding affinity α6
T12 construct: expressed in transfected cells; host or cells: HEK cells
Protocol: as §1

O=C(OCC(F)(F)F)c1cc2c(cn1)[nH]c1ccc(I)cc12 [WY-B-20]
Ki [1]: 2000 nM | Ki [2]: 2000 nM | Ki [3]: 12 nM | Ki [4]: 39 nM | Ki [5]: 47 nM | Ki [6]: 122 nM | Ki [7]: 3000 nM | Ki [8]: 12 nM | Ki [9]: 39 nM | Ki [10]: 47 nM | Ki [11]: 122 nM | Ki [12]: 3000 nM

CC(C)(C)OC(=O)c1cc2c(cn1)[nH]c1ccc(C#C[Si](C)(C)C)cc12 [WY-B-14 (WYS7)]
Ki [1]: 2000 nM | Ki [2]: 2000 nM | Ki [3]: 6.84 nM and 8.5 nM | Ki [4]: 30 nM and 165 nM | Ki [5]: 36 nM and 245 nM | Ki [7]: 1000 nM and 5000 nM | Ki [8]: 6.8 nM | Ki [9]: 30 nM | Ki [10]: 36 nM | Ki [11]: 108 nM | Ki [12]: 1000 nM

CN1CCc2cccc3c2[C@H]1Cc1ccc(O)c(O)c1-3 [apomorphine, reference compound]
number of active dopamine neurons, MAM rats withdrawn from repeated HAL [13]: no effect | number of spontaneously active dopamine neurons, SAL rats withdrawn from repeated HAL [13]: increased

COc1ccc(-c2ccc(=N)n(CCCC(=O)O)n2)cc1 [gabazine, reference compound]
effect on the attenuation by SH-053-2′F-R-CH3 of the calcium increase [14]: significantly blocked

C#Cc1ccc2c(c1)C(=O)N(C)Cc1c(C(=O)OCC)ncn1-2 [RY-80 (3)]
Ki [15]: 21.4 nM | Ki [16]: 25.8 nM | Ki [17]: 5.3 nM | Ki [18]: 0.49 nM | Ki [19]: 28.8 nM

C#Cc1ccc2c(c1)C(c1ccccc1)=N[C@H](C)c1c(C(=O)OCC)ncn1-2 [SH-053-R-CH3, (15)]
Ki [20]: 2030 nM | Ki [21]: 2380 nM | Ki [22]: 1180 nM | Ki [23]: > 5000 nM | Ki [24]: 949 nM | Ki [25]: > 5000 nM

C#Cc1ccc2c(c1)C(c1ccccc1)=N[C@@H](C)c1c(C(=O)OCC)ncn1-2 [SH-053-S-CH3, (16)]
Ki [20]: 1670 nM | Ki [21]: 1260 nM | Ki [22]: 1250 nM | Ki [23]: > 5000 nM | Ki [24]: 206 nM | Ki [25]: > 5000 nM
